{"source": "patent US4298613A", "about": "“Agricultural heterocyclic sulfenamides” (E. I. Du Pont de Nemours and Company, priority 1980, dated 1981)", "key": {"[1]": {"test_system": "Puccinia graminis var. tritici", "assay_type": "in vivo", "details": "20 ppm, wheat seedlings, 3500 foot candles xenon arc 16 hours, 24 hours humidity chamber then 7 days"}, "[2]": {"test_system": "Puccinia graminis var. tritici", "assay_type": "in vivo", "details": "20 ppm, wheat seedlings, 24 hours humidity chamber at 20° C. then 7 days"}, "[3]": {"test_system": "Venturia inaequalis", "test": "Control of apple scab in a photostability test (Example 15)", "assay_type": "in vivo", "details": "20 ppm, apple seedlings, 3500 foot candles xenon arc 16 hours, incubated 10-12 days", "procedure": "Compounds of this invention are dissolved in acetone in an amount equal to 6% of the final volume and then suspended at a concentration of 20 ppm in purified water containing 25 ppm of the surfactant Alkanol® XC (sodium alkyl naphthalene sulfonate). This suspension is sprayed to the point of run-off on apple seedlings. When the foliage is dry, the plants are exposed to 3500 foot candles of light from a xenon arc source for a period of 16 hours. This light source approximates the spectrum of natural sunlight, and is used to assess photostability of the compounds of this invention on plant foliage. The following day, the plants are inoculated with a spore suspension of the fungus Venturia inaequalis and incubated in a growth room for 10-12 days. Disease ratings are then made. As shown in the following table, most of the compounds of this invention provided good disease control as the treated plants had fewer apple scab lesions in contrast to untreated plants which were covered with scab lesions. Phytotoxicity in the form of foliar burn was observed on some of the plants in association with disease control."}, "[4]": {"test_system": "Puccinia graminis var. tritici", "assay_type": "in vivo", "details": "20 ppm, wheat seedlings, 1/2 inch simulated rainfall, 24 hours humidity chamber then 7 days"}, "[5]": {"test_system": "Helminthosporium oryzae", "test": "Control of rice Helminthosporium in a seed treatment test (Example 11)", "details": "1.3 g per kilogram of seed, 18 days, rating based on percent germination", "protocol": "Rice seed infected with Helminthosporium oryzae are treated with compounds of this invention at a rate of 1.3 g per kilogram of seed. This is accomplished by soaking infected seed for 1 minute in a suspension of the indicated compound dissolved in a solution containing 4% glycerine, 4% water, 0.02% Tween®20*, and 92% acetone. Treated seeds are placed on moist blotters and enclosed in plastic bags for 18 days at which time disease ratings are made based on percent germination.\n*Tween®20 is a trademark of ICI Americas, Inc. and consists of polyoxytheylene (20) sorbitan monolaurate."}, "[6]": {"test_system": "Erysiphe cichoracearum", "test": "Control of cucumber powdery mildew in a preventive test (Example 16)", "assay_type": "in vivo", "details": "20 ppm, cucumber seedlings, incubated 7 days", "procedure": "(§1) Compounds of this invention are dissolved in acetone in an amount equal to 6% of the final volume and then suspended at a concentration of 20 ppm in purified water containing 25 ppm of the surfactant Alkanol® XC (sodium alkyl naphthalane sulfonate). This suspension is sprayed to the point of run-off on cucumber seedlings. The following day, the plants are inoculated with a spore suspension of the fungus Erysiphe cichoracearum and incubated in a growth room for 7 days. Disease ratings are then made."}, "[7]": {"test_system": "Rhizoctonia solani", "test": "Rhizoctonia solani control on cotton, simulated in-the-row soil application (Example 12)", "assay_type": "in vivo", "details": "15 kg/ha, 8 days", "description": "Rhizoctonia solani-infested soil was placed in a 900 cc cup. Compounds of this invention were mixed at a rate of 15 kg/ha in a section 2\" wide×2\" deep×4\" long to simulate an in-the-row application. Five cotton seeds were planted in the treated soil. After 8 days, the cotton plants were removed and rated for disease control."}, "[8]": {"test_system": "Venturia inaequalis", "test": "Control of apple scab in a residual wash-off test (Example 14)", "assay_type": "in vivo", "details": "20 ppm, apple seedlings, 1/2 inch simulated rainfall, incubated 10-12 days", "procedure": "as §1, with “naphthalene” for “naphthalane”, “apple” for “cucumber”, “day, 1/2 inch of simulated rainfall is applied to the foliage of the plants. When the foliage is dry,” for “day,”, “Venturia inaequalis” for “Erysiphe cichoracearum”, “10-12” for “7”, “made. […] Phytotoxicity in the form of foliar burn was observed on some of the plants in association with disease control.” for “made.”"}, "[9]": {"test_system": "Erysiphe cichoracearum", "test": "Control of cucumber powdery mildew in a photostability test (Example 18)", "assay_type": "in vivo", "details": "20 ppm, cucumber seedlings, 3500 foot candles xenon arc 16 hours, incubated 7 days", "procedure": "as §1, with “alkyl naphthalene” for “alkyl naphthalane”, “run-off in” for “run-off on”, “seedlings. When the foliage is dry, the plants are exposed to 3500 foot candles of light from a xenon arc source for a period of 16 hours. This light source approximates the spectrum of natural sunlight, and is used to assess photostability of the compounds of this invention on plant foliage.” for “seedlings.”"}, "[10]": {"test_system": "Venturia inaequalis", "test": "Control of apple scab in a preventive test (Example 13)", "assay_type": "in vivo", "details": "20 ppm, apple seedlings, incubated 10-12 days", "procedure": "as §1, with “naphthalene” for “naphthalane”, “apple” for “cucumber”, “Venturia inaequalis” for “Erysiphe cichoracearum”, “10-12” for “7”, “made. […] Phytotoxicity in the form of foliar burn was observed on some of the plants in association with disease control.” for “made.”"}, "[11]": {"test_system": "Phytophthora infestans", "details": "5 ppm, tomato seedlings, incubated 4 days"}, "[12]": {"test_system": "Erysiphe cichoracearum", "test": "Control of cucumber powdery mildew in a residual wash-off test (Example 17)", "assay_type": "in vivo", "details": "20 ppm, cucumber seedlings, 1/2 inch simulated rainfall, incubated 7 days", "procedure": "as §1, with “naphthalene” for “naphthalane”, “day, 1/2 inch of simulated rainfall is applied to the foliage of the plants. When the foliage is dry,” for “day,”"}, "[13]": {"test_system": "two spotted mites", "test": "Two-spotted mite mortality on red kidney bean plants (Example 9)", "assay_type": "in vivo", "details": "Tetranychus urticae, 48 h, read-out: % Mortality (2 days)", "procedure": "Test units consisted of plant pots containing two red kidney bean plants in the two-leaf stage per pot. The plants were infested with two spotted mites and sprayed to run-off with dispersions of N-[2-chloro-5-(trifluoromethyl)phenyl]-N-[2,4-dinitro-6-(trifluoromethyl)phenyl]-3-nitro-2-pyridinesulfenamide at the indicated concentrations. Dispersions were made by dissolving weighed quantities of the active ingredients in 10 ml of acetone and then diluting to volume with water containing 1:3000 of a surfactant, DuPonol® (a tradename of E. I. du Pont de Nemours & Co. for sodium alcohol sulfonate). Mortality was evaluated two days after spraying."}, "[14]": {"test_system": "house fly adults", "test": "House fly adult mortality (Example 10)", "assay_type": "in vivo, Musca domestica (house fly)", "details": "concentration .01 (unit not given), acetone dispersion, 1 day, 25°±2° C., 50% RH", "procedure": "Twenty-five house fly adults are secured in screened stainless steel ring cages and treated with acetone dispersions of N-[2-chloro-5-(trifluoromethyl)-phenyl]-N-[2,4-dinitro-6-(trifluoromethyl)phenyl]-3-nitro-2-pyridinesulfenamide at the indicated concentrations. The stock dispersion is prepared by dissolving appropriately weighed quantities of active ingredient in predetermined quantities of acetone. Further diluting with acetone yields the desired concentrations. After treating, the units are kept in a room maintained at 25°±2° C., 50% RH. Results are recorded at the end of 1 day."}}}
{"smiles": "O=[N+]([O-])c1cc([N+](=O)[O-])c(N(Sc2nc3ccccc3s2)c2cc(C(F)(F)F)ccc2Cl)c(C(F)(F)F)c1", "note": "[N-[2-chloro-5-(trifluoromethyl)phenyl]-N-[2,4-dinitro-6-(trifluoromethyl)phenyl]-2-benzothiazolesulfenamide]", "values": [{"measurement": "% Control Wheat Rust in a Photostability Test", "setting": "[1]", "result": 83, "unit": "%"}, {"measurement": "% Control Wheat Rust in a Preventive Test", "setting": "[2]", "result": 97, "unit": "%"}, {"measurement": "% Control Apple Scab in a Photo-stability test", "setting": "[3]", "result": 15, "unit": "%"}, {"measurement": "% Control Wheat Rust in a Residual Wash-off Test", "setting": "[4]", "result": 85, "unit": "%"}, {"measurement": "% Control of rice Helminthosporium in a seed treatment test", "setting": "[5]", "result": 0, "unit": "%"}, {"measurement": "% Control Cucumber Powdery Mildew in a Preventive Test", "setting": "[6]", "result": 60, "unit": "%"}, {"measurement": "% Rhizoctonia solani control", "setting": "[7]", "result": 50, "unit": "%"}, {"measurement": "% Control of Apple Scab in a Residual Wash-Off Test", "setting": "[8]", "result": 43, "unit": "%"}, {"measurement": "% Control Cucumber Powdery Mildew in a Photostability Test", "setting": "[9]", "result": 15, "unit": "%"}, {"measurement": "% Control Apple Scab in a Preventive Test", "setting": "[10]", "result": 43, "unit": "%"}, {"measurement": "% Control Tomato Late Blight in a Preventive Test", "setting": "[11]", "result": 0, "unit": "%"}, {"measurement": "% Control Cucumber Powdery Mildew in a Residual Wash-Off Test", "setting": "[12]", "result": 68, "unit": "%"}]}
{"smiles": "O=[N+]([O-])c1cc([N+](=O)[O-])c(N(Sc2ncccc2[N+](=O)[O-])c2cc(C(F)(F)F)ccc2Cl)c(C(F)(F)F)c1", "note": "[N-[2-chloro-5-(trifluoromethyl)phenyl]-N-[2,4-dinitro-6-(trifluoromethyl)phenyl]-3-nitro-2-pyridinesulfenamide]", "values": [{"measurement": "% Control Wheat Rust in a Photostability Test", "setting": "[1]", "result": 95, "unit": "%"}, {"measurement": "% Control Wheat Rust in a Preventive Test", "setting": "[2]", "result": 80, "unit": "%"}, {"measurement": "% Control Apple Scab in a Photo-stability test", "setting": "[3]", "result": 70, "unit": "%"}, {"measurement": "% Control Wheat Rust in a Residual Wash-off Test", "setting": "[4]", "result": 98, "unit": "%"}, {"measurement": "% Control of rice Helminthosporium in a seed treatment test", "setting": "[5]", "result": 90, "unit": "%"}, {"measurement": "% Control Cucumber Powdery Mildew in a Preventive Test", "setting": "[6]", "result": 100, "unit": "%"}, {"measurement": "mortality at 0.00025 %", "setting": "[13]", "result": 100, "unit": "%"}, {"measurement": "% Rhizoctonia solani control", "setting": "[7]", "result": 100, "unit": "%"}, {"measurement": "% Control of Apple Scab in a Residual Wash-Off Test", "setting": "[8]", "result": 100, "unit": "%"}, {"measurement": "% Control Cucumber Powdery Mildew in a Photostability Test", "setting": "[9]", "result": 94, "unit": "%"}, {"measurement": "% Control Apple Scab in a Preventive Test", "setting": "[10]", "result": 100, "unit": "%"}, {"measurement": "% Control Tomato Late Blight in a Preventive Test", "setting": "[11]", "result": 70, "unit": "%"}, {"measurement": "% Mortality", "setting": "[14]", "result": 90, "unit": "%"}, {"measurement": "% Control Cucumber Powdery Mildew in a Residual Wash-Off Test", "setting": "[12]", "result": 90, "unit": "%"}]}
